Test results taken from patent US5900231A, “Silicone-containing derivatives of salicylic acid which have desquamating properties” (L'Oreal, priority 1996, dated 1999).

Key:
[1] = system: keratinocytes; assay: in vitro test of the efficacy of the desquamation on keratinocytes (release of corneocytes, flow cytometry); assay type: cell-based; settings: for cell detachment index (difference between T60 and T0; release of corneocytes relative to control): 60 minutes after addition, relative to control without test product, equal concentrations; for desquamating activity compared with 5-n-octanoylsalicylic acid: at a concentration equal to that of 5-n-octanoylsalicylic acid
Experimental: An in vitro test of the efficacy of the desquamation was carried out on keratinocytes using 5-n-octanoylsalicylic acid (compound C1), 2-hydroxy4-(3-trimethylsilanylpropyloxy)benzoic acid (compound C2) and 2-hydroxy-5-(3-trimethylsilanylpropyloxy)benzoic acid (compound C3). C1 is a known powerful desquamating active agent, but not part of the present invention. C2 and C3 are compounds of the present invention.
The principle of the test rests on the fact that desquamation is known to induce the release of corneocytes. The desquamating power of the test product should be proportionately greater the larger the number of corneocytes released.
The test procedure was as follows: keratinocytes were obtained by separating the epidermis from skin biopsies, and these keratinocytes were dissociated by enzymatic action with trypsin and cultured at a concentration of 2×10^5 cells/ml. Growth and differentiation of the keratinocytes were obtained by culturing for 10 to 20 days in specific medium.
Next, after removing the culture medium, the test product was added and the activity of the product evaluated. To do this, two samples were taken at T0 and T60, i.e., before addition of the product and 60 minutes after this addition, and the samples thus taken were analysed on a flow cytometer to count the population of corneocytes.
The cell detachment index was determined by the difference between T60 and T0.
The same measurement was taken for a control containing no test product since the experiment inevitably produces the release of corneocytes, even in the absence of active agent. The variation of the control arbitrarily set the standard at 100%.

[2] = solubility in MIGLYOL 812 (mixture of caprylic acid and capric acid triglyceride); assay type: physicochemical
Experimental: The solubility of the silicon-containing derivatives of salicylic acid according to the invention in organic media was evaluated by comparing the solubility of 5-n-octanoylsalicylic acid with inventive compounds:
in a mixture of caprylic acid and capric acid triglyceride, marketed under the name MIGLYOL 812 by the company Huls.

Row | SMILES | cell detachment index (difference between T60 and T0; release of corneocytes relative to control) [1] [%] | Solubility at room temperature [2] [%] | desquamating activity compared with 5-n-octanoylsalicylic acid [1]
1 | CCCCCCCC(=O)c1ccc(O)c(C(=O)O)c1 [Compound C1, 5-n-octanoylsalicylic acid, reference compound] | 103 | < 1.5 | 
2 | C[Si](C)(C)CCCOc1ccc(C(=O)O)c(O)c1 [Compound C2, 2-hydroxy-4-(3-trimethylsilanylpropyloxy)benzoic acid] | 157 | 2 | much more active than the latter
3 | C[Si](C)(C)CCCOc1ccc(O)c(C(=O)O)c1 [Compound C3, 2-hydroxy-5-(3-trimethylsilanylpropyloxy)benzoic acid] | 135 | 7 | much more active than the latter
4 | CC(COc1ccc(C(=O)O)c(O)c1)C[Si](C)(O[Si](C)(C)C)O[Si](C)(C)C (stereo not shown) [Compound C4, 2-hydroxy-4-[2-methyl-3-[1,3,3,3-tetramethyl-1-[(trimethyl-silyl)oxy]disiloxanyl]propyloxy]benzoic acid] |  | 6 | 
5 | CC(Cc1cccc(C(=O)O)c1O)C[Si](C)(O[Si](C)(C)C)O[Si](C)(C)C (stereo not shown) [Compound C5, 2-hydroxy-3-[2-methyl-3-[1,3,3,3-tetramethyl-1-[(trimethylsilyl)oxy]disiloxanyl]propyl]benzoic acid] |  | > 20 | 
